Assay results from US20170298056A1, “SMALL MOLECULE INHIBITORS OF HIV-1 ENTRY AND METHODS OF USE THEREOF” (Dana-Farber Cancer Institute, Inc., priority 2014, published 2017).

Assays:
[1] = test system: F-luc expression in H-Fluc4 cells; experiment: Specificity control assay (induced firefly luciferase, H-Fluc4 cells); type: cell-based
Protocol: H-JRFL#1336 (effector) and H-Fluc4 (control) cells were grown in DMEM containing 10% FBS, 100 μg/ml streptomycin, 100 units/ml penicillin, 200 μg/ml G418, 1 μg/ml puromycin and 2 μg/ml doxycycline. H-JRFL#13 cells carry an HIV-1JR-FL env gene that is induced by growing the cells in the absence of doxycycline (Tet-Off expression system). H-Fluc4 cells, which carry a firefly luciferase gene that is induced in the absence of doxycycline, were used as specificity controls. Both cell lines were derived from HeLa cells and constitutively express the tetracycline-regulated transactivator (Tet-Off expression system). […]
H-JRFL#13 or H-FLuc4 cells were washed thrice, detached with StemPro Accutase, centrifuged at 200×g for 6 minutes at 10° C. and seeded in DMEM containing 10% tetracycline-approved FBS, 100 μg/ml streptomycin, 100 units/ml penicillin, 100 μg/ml G418, 1 μg/ml puromycin and without Phenol Red. […] Firefly luciferase activity was measured using an EnVision Multilabel Plate Reader (PerkinElmer, Boston, Mass.). […]
To identify new molecules that potentially affect HIV-1 entry, a cell-cell fusion assay that mimics the entry of HIV-1 into cells was established (FIG. 1a). The assay uses a firefly luciferase (F-luc) readout to measure the fusion of HeLa effector cells that express the Envs from a primary HIV-1 strain and target cells coexpressing the CD4 and CCR5 receptors. […]

PBMC = experiment: Viability assay (CellTiterGlo), PBMC; type: cell-based; conditions: human PBMC, range of tested concentrations
Protocol: Viability Assay. As part of the secondary screen, cells were incubated for ˜20 hours in 384-well plates in a final volume of 45 μl growth medium at 37° C. The plate was equilibrated to room temperature, 15 μl of CellTiterGlo (Promega) was added to each well and luminescence was measured as described above. The viability assay with 18A was done in parallel to the viral infection assay for the same length of time. 18A was diluted using an HP D300 Digital Dispenser in a 96-well B&W isoplate and cells were added. After incubation of 26-30 hours (Cf2Th cells) or 40-44 hours (PBMC). 30 μl (Cf2Th cells) or 100 μl (PBMC) of CellTiterGlo was added and luminescence was measured as described above.

## O=C(N/N=C/c1ccc(O)cc1)Nc1cccc2nsnc12 [Compound 18A]
[1]
  IC50: 15.1 ± 1.1 µM
PBMC
  effect on viability of the cells: No significant effect
